ChEMBL document CHEMBL1151140, “Enantiomeric Relationships and Anthelmintic Activity of Dysinin Derivatives from Dysidea Marine Sponges” (J Nat Prod, 1990)
Calls of active or inactive are those of the source. The rule behind the calls is not given here.

How the values were obtained:
[1] = system: Nippostrongylus brasiliensis; experiment: Anthelmintic activity against Nippostrongylus brasiliensis at 50 ug/ml; format: functional, organism-based
[2] = Anthelmintic activity against Hypselodoris nana at 1000 ppm; format: functional
[3] = system: Nippostrongylus; experiment: Anthelmintic activity against Nippostrongylus dubias at 1000 ppm; format: functional, organism-based

CC(=O)SCC1=C[C@H]2Cc3occc3C(C)(C)[C@@H]2CC1
Activity [1]: Active

CO[C@]12C[C@@H]3C=C(CSC(C)=O)CC[C@H]3C(C)(C)C1=CC(=O)O2
Activity [1]: inactive

CC1=C[C@H]2Cc3occc3C(C)(C)[C@@H]2CC1
Activity [2]: inactive | Activity [1]: Active | Activity [3]: inactive

CC1(C)c2ccoc2C[C@@H]2C=C(CSSCC3=C[C@H]4Cc5occc5C(C)(C)[C@@H]4CC3)CC[C@H]21
Activity [1]: Active
